From US20230341376A1, “SYSTEM, METHOD, AND COMPUTER-ACCESSIBLE MEDIUM FOR PHENOTYPING OF SINGLE CELLS WITH MULTIPLEXED VIBRATIONAL PROBES” (The Trustees of Columbia University in the City of New York, priority 2020, published 2023)

Legend:
Assay type in all cases: cell-based, human
HeLa cells = test: Endocytic pathway profiling by Rdots of various sizes and colors, whole-cell Raman
Procedure: Upon exposure to mammalian cells, PS beads have been reported to enter cells through endocytosis, subsequently reaching the endosomal components. (See, e.g., Reference A40). Although some of the endocytic pathways have been well established, their exact biological roles are still under investigation. (See, e.g., References A41, A42). […] (See, e.g., Reference A43). Motivated by the independent size and color tunability of Rdots, cellular endocytosis pathways were profiled by incubating cells with Rdots of different sizes and colors. Rdots of 40 nm (Rdot2207), 70 nm (Rdot2118), and 120 nm (Rdot2092) in diameter were incubated with HeLa cells, and their Raman peaks are designed to be mutually resolvable.
For whole-cell Raman acquisition, the corresponding Raman intensity is proportional to the number of internalized Rdots, since the Raman intensity of Rdots remains stable after exposed to cellular microenvironments. We therefore quantified the peak intensity to profile the differential mechanism of Rdots internalization. To this end, cells were first pre-treated with one of three inhibitors, chlorpromazine (CPZ), nystatin, and cytochalasin D (Cyto D). CPZ is a cationic amphiphilic drug used to block clathrin-mediated endocytosis. (See, e.g., Reference A44). Nystatin can decompose cholesterol and inhibit caveolae-mediated endocytosis. (See, e.g., Reference A45). Cyto D inhibits the polymerization of actin filaments, which is required for receptor-mediated endocytosis in mammalian cells. (See, e.g., Reference A46). Additionally, cells were incubated at 4° C. to inhibit energy-dependent endocytosis. Then endocytosis was examined by the quantification of internalized Rdots at the single-cell level. A distinctive response of Rdots internalization was detected when treated with various inhibitors (FIGS. 16E-G), and the radar plot was presented to highlight the fold change after inhibition (FIG. 16H). […] (See, e.g., Reference A47). […] (See, e.g., References A48, A49).
FIGS. 16A-16M show exemplary illustration of an exemplary endocytic profiling assay by multi-color Rdots. […] The peak position of each Rdots was indicated by the arrow. Excitation: 532 nm (400 mW), acquisition time: 1 s. FIGS. 16B-16D show exemplary SRS images of cellular distribution for three endocytic Rdots, (B) 40 nm (C) 70 nm (D) 120 nm, scale bar: 10 µm. […] Excitation: 532 nm (400 mW), acquisition time: 1 s. FIGS. 16J-L show exemplary histogram showing the Raman intensity distribution of three endocytic Rdots uptake by HeLa, SKBR3, and COS-7 cells, FIG. 16J - 40 nm, FIG. 16K - 70 nm, and FIG. 16L - 120 nm.

SKBR3 cells = system: SKBR3 cells
Procedure: Metabolic probes including ^13C-EdU, 17-ODYA, and ^13C-AA were first supplemented to cell culture media for 60 hours to report various metabolic activities. For endocytic profiling, cells were subsequently incubated with three Rdots for 6 hours. Then, seven functionalized Rdots cocktail was pooled to stain cell surface proteins simultaneously. Prior to the spectral acquisition, AltQ2 probe was added to live cells. Single-cell Raman spectra of SKBR3 cells were acquired with 1 second acquisition time (see FIG. 17C). To decipher the contribution of individual Raman probes, the amide region (1500 cm^-1-1700 cm-^1) and cell-silent region (2000 cm^-1 - 2300 cm-^1) were linearly decomposed by using the reference spectral profiles of each probe (see FIG. 17D) (See, e.g., References A54-A56). The unmixing procedure was applied on single-cell Raman spectra (see FIG. 17E). […] (See, e.g., References A25, A26).
Cell-based profiling techniques are increasingly being used in drug discovery to monitor cell response upon drug treatment. (See, e.g., Reference A57). Optical techniques have unique advantages by allowing non-invasive, fast, and cost-effective readouts of individual living cells. (See, e.g., Reference A58). However, most high-content profiling assays have been primarily focusing on partial aspects of biological phenotypes. (See, e.g., Reference A59). Integration of different phenotypes will facilitate a more systematic understanding of the mechanism of drug candidates. (See, e.g., Reference A60). […] Trastuzumab is a HER2-targeted monoclonal antibody developed for clinical use in breast cancer patients. (See, e.g., Reference A61). Hydrogen peroxide (H2O2) is well known as a major member of reactive oxygen species (ROS). (See, e.g., Reference A62). Cycloheximide (CHX) exerts its action by inhibiting protein synthesis. (See, e.g., Reference A63). Cyto D causes the disruption of actin filaments and inhibition of actin polymerization. (See, e.g., Reference A64). Cisplatin is an inhibitor of DNA synthesis and cell growth. (See, e.g., Reference A65). After labeling with 14 Raman probes, single-cell Raman spectra of SKBR3 cells under treatment of five chemotherapy reagents, as well as untreated cells, were acquired through the automated whole-cell Raman micro-spectroscopy (see FIG. 18B).
SKBR3 cells were seeded onto 18 mm round quartz coverslips (Electron Microscopy Sciences, 103302-258) and then maintained in a culture environment for 48 hours to reach 90% confluence. Then the culture medium was replaced with ^13C-AA DMEM containing 200 µM 17-ODYA and 50 nM ^13C-EdU for 60 hours. For the drug testing samples, cells were subject to the drug treatment simultaneously (see Table 5 for specific drug concentration). Followed by three rounds of gentle washing of DPBS buffer, cells were subsequently incubated with three-colored endocytic Rdots at 1 nM in serum-free DMEM medium. 6 hours later, cell surface markers were stained with seven-colored Rdots at a concentration of 10 nM for 1 hour on ice. After that, cells were washed extensively with DPBS buffer with 5 mM MgCl2 and 1% BSA. Then cells were rinsed with DPBS buffer with 5 mM MgCl2 and 40 µM AltQ2 before mounting onto the microscope for Raman measurement. Spectral unmixing was performed through the Least Square Method (LSM).

A375 cells = conditions: for metabolic heterogeneity of lipid synthesis activity (Cv of single-cell d-PA metabolites): compared to untreated control group; for d-AA metabolites (protein synthesis activity): compared to untreated group
Procedure: Deuterated branch-chained amino acids and deuterated palmitic acid were supplemented to the cell culture media for 24 hours in order to probe the flux of protein and lipid synthesis. There can be several considerations for choosing these two types of probes. First, protein and lipids can be the major components of cell dry mass and their metabolism can be tightly regulated. Second, Raman spectra of the metabolites of these two deuterated probes in cells can be shifted to the cell silent region (e.g., 2000 — 2300 cm-1), which facilitated the detection with high sensitivity in a background-free manner. (See, e.g., FIG. 8). Third, compared to non-branch-chained counterparts, branch-chained amino acids were chosen for their narrower Raman spectra in order to have better spectral differences from that of deuterated palmitic acid. (See, e.g., Reference 23; and FIGS. 9). With the high-throughput instrumentation efforts described above, Raman spectra of these two types of probes can be acquired as quickly as 0.5 s for the entire cell with a satisfactory signal to noise ratio. (See, e.g., FIG. 1B).
Previously, the single-cell metabolic measurement has been challenging. Previously-used methods, such as mass spectrometry, can be difficult to reveal single-cell level heterogeneity. (See, e.g., Reference 24). […] However, due to the complex nature of the Raman spectra, it can be difficult to assign each Raman peak in the fingerprint region to a specific chemical compound. (See, e.g., Reference 25). In addition, when dimension reduction approaches such as PCA can be applied, which can be a common practice for data analysis, the physical meanings of the dimension reduced data can be further lost. On the other hand, since the metabolic probes used have distinctive spectra, it can be straightforward to decompose the spectra in order to obtain the concentration information of each individual probe. Here the exemplary MCR-ALS method, (see, e.g., References 26-28), was used to decompose the composite spectra into the pure spectra of the two metabolic probes, and concentration profiles could thereby be obtained.
To validate the ability to reveal metabolic activity, the exemplary MAP was applied to cultured cells treated with drugs that inhibit known metabolism. Five drugs were used as the reference: cycloheximide and blasticidin, both inhibit protein translation; Triacsin C can be an inhibitor of long fatty acyl CoA synthetase; etoposide and cisplatin can be DNA replication inhibitors. MAP probes and individual drugs were added to the seeded A375 cells and allowed to incubate for 24 hours, after which the cells were fixed and Raman spectra were taken from each individual of the fixed single cells. At least 3 batches of each drug were prepared to ensure model robustness and reproducibility. MCR-ALS on the Raman spectra taken with MAP were applied, from which the concentration profiles of d-AA metabolites and d-PA metabolites in every single cell were calculated. (See, e.g., FIG. 2A).
Since MAP measures the metabolic activity in single cells, its potential in quantitatively characterizing single-cell metabolic heterogeneity was determined. The coefficients of variation (“Cv”) of the single-cell d-PA metabolites and d-AA metabolites distribution were calculated from the metabolic inhibitor-treated cells. (See, e.g., Reference 32). The Cv value can be a normalized measure of the dispersion of the single-cell metabolic activity distribution and thus it can be used as a parameter to quantify the metabolic heterogeneity. […] (See, e.g., FIG. 2C). […] (See, e.g., FIG. 2D).
For MAP samples, cells were first seeded in a 24-well plate at 50% confluency with cell culture media and allowed to adhere overnight. Then the culture media was replaced with MAP culture media (see Table 1 below) and cells were further cultured in MAP media for 24 hours. […]

[1] = drug 60 hours, normalized to control

C=C1[C@@H](C)[C@H]2[C@H](Cc3ccccc3)NC(=O)[C@]23[C@H](OC(C)=O)/C=C/[C@@](C)(O)C(=O)[C@@H](C)C/C=C/[C@H]3[C@@H]1O [Cyto D, cytochalasin D]
cellular uptake of Rdots, incubation with inhibitor for 60 hours (HeLa cells; 60 hours): markedly promoted
Rdots internalization, short-term inhibitor incubation (HeLa cells; short-term incubation (6 hours per FIG. 16 legend)): suppressed
CD44 surface expression (Rdot2079-CD44) (SKBR3 cells; drug 60 hours): suppresses CD44 surface expression
internalization of AltQ2 (SKBR3 cells; drug 60 hours): increased internalization
DNA synthesis (13C-EdU probe) (SKBR3 cells; [1]): inhibits
protein synthesis (13C-AA probe) (SKBR3 cells; [1]): inhibits
cellular internalization of Rdots (SKBR3 cells; long-term drug treatment): promote cellular internalization of Rdots

OO [H2O2, Hydrogen peroxide]
cellular internalization of Rdots of 70 nm (SKBR3 cells; drug 60 hours): promoted
cellular internalization of Rdots of 120 nm (SKBR3 cells; drug 60 hours): promoted
fatty acid turnover phenotype (17-ODYA probe) (SKBR3 cells; drug 60 hours): retarding their turnover rate
internalization of AltQ2 (SKBR3 cells; drug 60 hours): increased internalization

CN(CC[C@H](N)CC(=O)N[C@H]1C=C[C@H](n2ccc(N)nc2=O)O[C@@H]1C(=O)O)C(=N)N [blasticidin]
metabolic heterogeneity of lipid synthesis activity (Cv of single-cell d-PA metabolites) (A375 cells; 24 hours drug): did not alter the lipid synthesis activity distribution
d-AA metabolites (protein synthesis activity) (A375 cells; drug plus MAP probes 24 hours): significant decrease

N.N.[Cl][Pt][Cl] [cisplatin]
metabolic heterogeneity of lipid synthesis activity (Cv of single-cell d-PA metabolites) (A375 cells; 24 hours drug): significantly decreased lipid synthesis heterogeneity

C[C@@H]1C[C@@H]([C@H](O)CC2CC(=O)NC(=O)C2)C(=O)[C@@H](C)C1 [cycloheximide]
metabolic heterogeneity of lipid synthesis activity (Cv of single-cell d-PA metabolites) (A375 cells; 24 hours drug): did not alter the lipid synthesis activity distribution
d-AA metabolites (protein synthesis activity) (A375 cells; drug plus MAP probes 24 hours): significant decrease
internalization of AltQ2 (SKBR3 cells; drug 60 hours): increased internalization
DNA synthesis (13C-EdU probe) (SKBR3 cells; [1]): interfere with the process other than protein synthesis such as DNA synthesis

COc1cc([C@@H]2c3cc4c(cc3[C@@H](O[C@@H]3O[C@@H]5CO[C@@H](C)O[C@H]5[C@H](O)[C@H]3O)[C@H]3COC(=O)[C@H]23)OCO4)cc(OC)c1O [etoposide]
metabolic heterogeneity of lipid synthesis activity (Cv of single-cell d-PA metabolites) (A375 cells; 24 hours drug): significantly decreased lipid synthesis heterogeneity

C[C@@H]1[C@H](O)[C@@H](C)/C=C/C=C/CC/C=C/C=C/C=C/C=C/C(O[C@H]2O[C@H](C)[C@@H](O)[C@H](N)[C@@H]2O)CC2O[C@](O)(CC(O)C(O)CCC(O)CC(O)CC(O)CC(=O)O[C@H]1C)CC(O)C2C(=O)O (stereo partly drawn) [nystatin]
internalization of 120 nm Rdots after inhibitor pre-treatment (HeLa cells; Rdot2092 (120 nm)): inhibited
internalization of 70 nm Rdots after inhibitor pre-treatment (HeLa cells; Rdot2118 (70 nm)): inhibited
internalization of 40 nm Rdots after inhibitor pre-treatment (HeLa cells; Rdot2207 (40 nm)): unaltered or even slightly higher
Rdots uptake (40 nm, 70 nm and 120 nm Rdots) after inhibitor pre-treatment (HeLa cells; single-cell Raman intensity of internalized Rdots): decreased as size increases

CCC/C=C/C/C=C/C=C/C=N/NN=O [triacsin C, Triacsin C]
metabolic heterogeneity of protein synthesis activity (Cv of single-cell d-AA metabolites) (A375 cells; 24 hours drug, compared to control group): unaltered Cv value
metabolic heterogeneity of lipid synthesis activity (Cv of single-cell d-PA metabolites) (A375 cells; 24 hours drug): did not change the metabolic heterogeneity
d-PA metabolites (lipid synthesis activity) (A375 cells; drug plus MAP probes 24 hours, compared to untreated cells): significant loss
d-AA metabolites (protein synthesis activity) (A375 cells; drug plus MAP probes 24 hours): decrease in protein synthesis activity
